This note sets out measurements from ChEMBL document CHEMBL1921749, “5-Lipoxygenase-activating protein (FLAP) inhibitors. Part 4: development of 3-[3-tert-butylsulfanyl-1-[4-(6-ethoxypyridin-3-yl)benzyl]-5-(5-methylpyridin-2-ylmethoxy)-1H-indol-2-yl]-2,2-dimethylpropionic acid (AM803), a potent, oral, once daily FLAP inhibitor” (J Med Chem, 2011).

Bounds are passed on as bounds.

Series [1] in a line: Plasma concentration in rat at 3 mg/kg, po after 16 hrs. Format: ADME, organism-based. Set-up: dose 3 mg/kg, route oral.
Series [2] deals with Rattus norvegicus. Briefly: Antiinflammatory activity in rat assessed as inhibition of calcium ionophore A23187-induced CysLT production in bronchoalveolar lavage fluid at 3 mg/kg, po administered 4 hrs prior to A23187 challenge. Format: functional, Lung. Details: scale not given: the % may be the effect or the level left.
The target in series [3] is T1, Prostaglandin G/H synthase 2 (Homo sapiens, UniProt P35354).
T1 sequence (P35354 whole entry): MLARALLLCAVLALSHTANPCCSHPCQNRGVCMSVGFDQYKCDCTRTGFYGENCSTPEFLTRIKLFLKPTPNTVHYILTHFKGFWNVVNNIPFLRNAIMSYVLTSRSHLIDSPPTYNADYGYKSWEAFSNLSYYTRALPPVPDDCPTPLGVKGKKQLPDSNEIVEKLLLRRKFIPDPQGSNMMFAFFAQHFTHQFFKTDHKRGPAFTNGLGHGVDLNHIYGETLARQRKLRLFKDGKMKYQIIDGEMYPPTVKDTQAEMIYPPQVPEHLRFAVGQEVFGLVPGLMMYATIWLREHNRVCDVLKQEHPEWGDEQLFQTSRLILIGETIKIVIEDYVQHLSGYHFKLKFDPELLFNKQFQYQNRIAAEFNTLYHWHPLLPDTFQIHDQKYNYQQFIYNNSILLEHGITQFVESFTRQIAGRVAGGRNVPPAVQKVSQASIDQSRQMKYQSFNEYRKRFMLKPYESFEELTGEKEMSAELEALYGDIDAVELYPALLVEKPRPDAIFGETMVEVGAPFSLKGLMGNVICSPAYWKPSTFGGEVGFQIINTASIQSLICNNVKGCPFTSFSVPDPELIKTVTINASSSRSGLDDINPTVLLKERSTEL
As to the kind of experiment: Inhibition of COX2-mediated PGE2 production in human whole blood assay.

Series [4] in a line: Plasma protein binding in human. Format: ADME, cell-free. Conditions: read-out: PPB (converted).
Series [5] deals with T2, Arachidonate 5-lipoxygenase-activating protein (Homo sapiens, UniProt P20292).
T2 sequence (P20292 whole entry): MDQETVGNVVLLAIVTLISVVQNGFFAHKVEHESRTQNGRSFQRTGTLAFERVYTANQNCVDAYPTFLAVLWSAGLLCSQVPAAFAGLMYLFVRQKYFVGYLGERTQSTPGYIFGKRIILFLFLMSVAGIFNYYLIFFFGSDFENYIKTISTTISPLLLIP
Briefly: Inhibition of FLAP in human peripheral leukocytes assessed as inhibition of calcium ionophore A23187-induced LTB4 production after 1 hr by ELISA in absence of human serum albumin. Format: cell-based. In general terms: An ELISA detects its analyte on a solid surface through an enzyme-linked reagent.

The target of series [6] is Prostaglandin G/H synthase 1 (Homo sapiens, UniProt P23219). As to the kind of experiment: Inhibition of COX1-mediated TXB2 production in human whole blood after 30 mins by competitive enzyme immunoassay.
Series [7] concerns the target T2, Arachidonate 5-lipoxygenase-activating protein. As to the kind of experiment: Inhibition of FLAP in human peripheral leukocytes assessed as inhibition of calcium ionophore A23187-induced LTB4 production after 5 mins by ELISA in absence of human serum albumin. Format: cell-based.
Series [8] in a line: Oral bioavailability in Beagle dog at 5 mg/kg. In kind it is ADME, organism-based, Canis lupus familiaris. Conditions: in vivo.
The next series concerns the target Cytochrome P450 2C19 (Homo sapiens, UniProt P33261). Briefly: Inhibition of human CYP2C19. In kind it is ADME.
Series [9] can be described thus: Volume of distribution in Beagle dog at 2 mg/kg, iv. Format: ADME, organism-based, Canis lupus familiaris. Set-up: dose 2 mg/kg, route intravenous. To be noted: in vivo.
The subject of series [10] is Rattus norvegicus. As to the kind of experiment: Antiinflammatory activity in rat assessed as inhibition of calcium ionophore A23187-induced LTB4 production in bronchoalveolar lavage fluid at 3 mg/kg, po administered 4 hrs prior to A23187 challenge. Format: functional, Lung. Details: scale not given: the % may be the effect or the level left.
In series [11] the target is T2, Arachidonate 5-lipoxygenase-activating protein. As to the kind of experiment: Inhibition of FLAP in human whole blood assessed as inhibition of calcium ionophore A23187-induced LTB4 production preincubated for 15 mins by ELISA.
The target in a further series is Cytochrome P450 3A4 (Homo sapiens, UniProt P08684). Briefly: Time-dependent inhibition of CYP3A4 at 10 uM. Format: ADME.
The target of series [12] is T2, Arachidonate 5-lipoxygenase-activating protein. As to the kind of experiment: Inhibition of FLAP in human peripheral leukocytes assessed as inhibition of calcium ionophore A23187-induced LTB4 production after 3 hr by ELISA in presence of 0.5% human serum albumin. Format: cell-based.
Series [13] can be described thus: Half life in Beagle dog at 2 mg/kg, iv. To be noted: in vivo. Set-up: dose 2 mg/kg, route intravenous. Format: ADME, organism-based, Canis lupus familiaris.
Another series has as its target Cytochrome P450 2D6 (Homo sapiens, UniProt P10635). Briefly: Inhibition of human CYP2D6. In kind it is ADME.
The target in the next series is T3, Leukotriene C4 synthase (Homo sapiens, UniProt Q16873).
T3 sequence (Q16873 whole entry): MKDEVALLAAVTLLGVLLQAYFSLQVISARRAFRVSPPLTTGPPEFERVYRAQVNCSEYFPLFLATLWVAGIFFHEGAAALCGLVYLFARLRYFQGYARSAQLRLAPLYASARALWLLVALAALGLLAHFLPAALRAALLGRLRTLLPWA
As to the kind of experiment: Inhibition of LTC4 synthase.

Series [14] concerns Rattus norvegicus. Briefly: Antiinflammatory activity in rat assessed as inhibition of calcium ionophore A23187-induced CysLT production in bronchoalveolar lavage fluid at 3 mg/kg, po administered 16 hrs prior to A23187 challenge. Format: functional, Lung. Details: scale not given: the % may be the effect or the level left.
For series [15], the target named is T2, Arachidonate 5-lipoxygenase-activating protein. Briefly: Inhibition of FLAP in human peripheral leukocytes assessed as inhibition of calcium ionophore A23187-induced LTB4 production after 10 mins by ELISA in presence of 0.5% human serum albumin. In kind it is cell-based.
Another series has as its target T4, Cytochrome P450 1A2 (Homo sapiens, UniProt P05177).
T4 sequence (P05177 whole entry): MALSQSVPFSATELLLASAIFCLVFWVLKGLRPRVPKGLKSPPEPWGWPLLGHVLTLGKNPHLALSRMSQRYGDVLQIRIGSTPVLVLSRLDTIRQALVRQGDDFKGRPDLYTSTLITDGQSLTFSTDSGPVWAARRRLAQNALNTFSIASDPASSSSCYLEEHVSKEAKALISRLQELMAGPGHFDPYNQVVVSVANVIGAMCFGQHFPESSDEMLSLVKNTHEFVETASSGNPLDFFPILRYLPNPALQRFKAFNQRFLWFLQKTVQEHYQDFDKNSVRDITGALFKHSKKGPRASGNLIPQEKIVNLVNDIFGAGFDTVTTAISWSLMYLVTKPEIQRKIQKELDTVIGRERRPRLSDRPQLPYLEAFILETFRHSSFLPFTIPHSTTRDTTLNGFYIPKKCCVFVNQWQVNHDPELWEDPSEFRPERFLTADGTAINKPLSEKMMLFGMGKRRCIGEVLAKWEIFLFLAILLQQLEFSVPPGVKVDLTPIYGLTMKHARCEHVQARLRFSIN
Briefly: Inhibition of human CYP1A2. In kind it is ADME.

Series [16] in a line: Plasma concentration in rat at 3 mg/kg, po after 4 hrs. Set-up: dose 3 mg/kg, route oral. Format: ADME, organism-based.
A short description of series [17]: Plasma protein binding in rat. In kind it is ADME, cell-free. To be noted: read-out: PPB (converted).
Another series concerns Plasma. As to the kind of experiment: Plasma protein binding in dog. Format: ADME, cell-free, Canis lupus familiaris.

Sequence of Prostaglandin G/H synthase 1 (P23219 whole entry): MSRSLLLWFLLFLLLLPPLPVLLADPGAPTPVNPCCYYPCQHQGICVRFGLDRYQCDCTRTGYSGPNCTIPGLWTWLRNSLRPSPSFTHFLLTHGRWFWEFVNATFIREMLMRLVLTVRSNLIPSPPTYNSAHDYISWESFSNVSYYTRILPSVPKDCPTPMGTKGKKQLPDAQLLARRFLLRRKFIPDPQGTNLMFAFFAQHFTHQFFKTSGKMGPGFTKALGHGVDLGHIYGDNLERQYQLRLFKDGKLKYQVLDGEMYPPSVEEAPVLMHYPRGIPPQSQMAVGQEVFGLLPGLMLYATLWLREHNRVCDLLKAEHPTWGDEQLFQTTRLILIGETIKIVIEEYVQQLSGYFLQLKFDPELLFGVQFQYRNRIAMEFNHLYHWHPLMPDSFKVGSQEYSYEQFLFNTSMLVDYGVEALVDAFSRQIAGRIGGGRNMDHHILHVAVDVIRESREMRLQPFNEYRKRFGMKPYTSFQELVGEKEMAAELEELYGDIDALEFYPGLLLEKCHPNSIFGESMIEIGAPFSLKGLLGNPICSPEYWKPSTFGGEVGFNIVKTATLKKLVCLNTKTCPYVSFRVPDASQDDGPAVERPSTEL
Sequence of Cytochrome P450 2C19 (P33261 whole entry): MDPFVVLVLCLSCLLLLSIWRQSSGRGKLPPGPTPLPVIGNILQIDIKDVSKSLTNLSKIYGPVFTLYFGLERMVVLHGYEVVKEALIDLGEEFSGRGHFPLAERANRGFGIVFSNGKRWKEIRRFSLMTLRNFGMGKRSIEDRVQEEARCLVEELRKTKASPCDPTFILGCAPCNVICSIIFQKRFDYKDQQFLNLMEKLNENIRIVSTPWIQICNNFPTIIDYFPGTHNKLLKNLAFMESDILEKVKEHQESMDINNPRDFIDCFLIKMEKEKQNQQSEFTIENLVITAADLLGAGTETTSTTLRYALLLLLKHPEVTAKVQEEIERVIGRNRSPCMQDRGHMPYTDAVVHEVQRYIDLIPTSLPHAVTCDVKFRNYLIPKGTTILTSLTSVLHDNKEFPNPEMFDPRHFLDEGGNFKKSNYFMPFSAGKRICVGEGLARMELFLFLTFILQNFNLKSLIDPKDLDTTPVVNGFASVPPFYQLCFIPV
Sequence of Cytochrome P450 3A4 (P08684 whole entry): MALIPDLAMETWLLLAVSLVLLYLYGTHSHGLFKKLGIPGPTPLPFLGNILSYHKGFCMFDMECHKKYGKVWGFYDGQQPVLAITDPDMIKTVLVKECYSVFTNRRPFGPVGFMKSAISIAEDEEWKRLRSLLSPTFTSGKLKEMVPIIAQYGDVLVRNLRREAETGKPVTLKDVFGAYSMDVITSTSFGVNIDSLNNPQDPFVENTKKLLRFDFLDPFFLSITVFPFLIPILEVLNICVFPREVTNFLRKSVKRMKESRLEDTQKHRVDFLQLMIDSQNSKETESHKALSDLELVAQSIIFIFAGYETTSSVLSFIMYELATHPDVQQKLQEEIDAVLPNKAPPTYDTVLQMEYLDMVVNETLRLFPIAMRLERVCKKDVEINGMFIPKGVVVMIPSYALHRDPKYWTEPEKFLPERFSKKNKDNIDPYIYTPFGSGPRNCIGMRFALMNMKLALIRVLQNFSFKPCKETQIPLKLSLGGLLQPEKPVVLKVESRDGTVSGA
Sequence of Cytochrome P450 2D6 (P10635 whole entry): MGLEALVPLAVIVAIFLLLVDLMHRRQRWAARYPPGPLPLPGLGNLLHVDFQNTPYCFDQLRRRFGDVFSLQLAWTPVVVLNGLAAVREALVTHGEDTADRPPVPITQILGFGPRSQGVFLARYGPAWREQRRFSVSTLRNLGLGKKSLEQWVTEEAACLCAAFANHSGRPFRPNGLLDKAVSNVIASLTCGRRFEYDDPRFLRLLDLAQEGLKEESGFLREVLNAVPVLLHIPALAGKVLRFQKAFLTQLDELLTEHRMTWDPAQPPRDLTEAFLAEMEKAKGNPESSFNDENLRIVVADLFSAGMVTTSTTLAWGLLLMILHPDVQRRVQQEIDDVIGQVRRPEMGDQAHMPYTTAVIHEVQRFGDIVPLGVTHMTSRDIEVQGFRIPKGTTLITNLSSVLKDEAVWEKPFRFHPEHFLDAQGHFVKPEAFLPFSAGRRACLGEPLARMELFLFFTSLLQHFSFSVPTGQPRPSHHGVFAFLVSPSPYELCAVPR

In series [1], `CCOc1ccc(-c2ccc(Cn3c(CC(C)(C)C(=O)O)c(SC(C)(C)C)c4cc(OCc5ccc(C)cn5)ccc43)cc2)cn1` [FIBOFLAPON] showed a concentration at 16 h of 3 nM. The figures for the Activity with Rattus norvegicus [2], in the series with Rattus norvegicus [10] and in the series with Rattus norvegicus [14] were 80%, 100% and 41%, respectively. Further, the 50% inhibitory concentration (IC50) in [3] was > 100000 nM; in series [5], 1 nM; in series [6] it was 58000 nM; in series [7], 1 nM; against Cytochrome P450 2C19, > 40000 nM; in [11], 506 nM. Also, the IC50 was 4 nM in [12]; > 40000 nM against Cytochrome P450 2D6; 36000 nM against Leukotriene C4 synthase; 26 nM in series [15]; > 40000 nM against Cytochrome P450 1A2. For the same compound, the figures for the fraction unbound in series [4] and in series [17] were 0.005 and 0.002, respectively. Also, the bioavailability in [8] is 51%. The same compound had a Vd in [9] of 0.2 L/kg. In addition, the TDI result on Cytochrome P450 3A4 is “Not Active”. This compound also had a half-life in [13] of 13 h. For the same compound, the concentration at 4 h in series [16] came out at 1000 nM. In the series on Plasma, this compound had a PPB of 99.7%.

As a reminder, the IC50 is the concentration at which inhibition is half-maximal. Usually bioavailability stands for the share of a dose that reaches the circulation, judged against a reference dose that is usually intravenous. By Vd is commonly meant the apparent volume that relates the amount in the body to the concentration in plasma or blood. For orientation: half-life means the time needed for the level to fall by half in the phase considered.
